# Tests used:
# [1] = molecular target: human MMP-9 (Homo sapiens (Human), UniProt P14780); experiment: MMP-9 inhibition test; format: biochemical; settings: read-out: MMPs IC50 MMP-9
# Method: (§1) MMP inhibition tests can be carried out, for example, using a fluorescent synthetic substrate based on the methods described in Bickett et al. (D. Mark Bickett et al., Anal. Biochem., 1993, 212, 58-64) and Nagase et al. (H. Nagase et al., J. Biol. Chem., 1994, 269, 20952-20957). The method for each MMP inhibition test is shown below.
# 90 μL (11 ng) of human MMP-9 (Calbiochem #444231) was mixed with 10 μL of 10 mM APMA, and activated by reacting at 37° C. for 2 hours. 10 μL of the resultant enzyme solution was diluted to 90 μL with an assay buffer A. The mixture was added to 90 μL of a 20 μM fluorescent substrate (Dnp-Pro-Cha-Gly-Cys(Me)-His-Ala-Lys(Nma)-NH2) (SEQ ID NO: 2) prepared with an assay buffer B, and reacted at 37° C. for 4 hours. Enzyme activity was then determined by measuring with a fluorescence intensity meter (Labsystems, Fluoroskan Ascent) at an excitation wavelength of 355 nm and a measurement wavelength of 460 nm.
# (§2) From the enzyme activity in the presence or the absence of the test substance, the inhibition rate was determined, and the 50% inhibitiory concentration (IC50) of the test substance was calculated.
# [2] = molecular target: human MMP-8 (Homo sapiens (Human), UniProt P22894); experiment: MMP-8 inhibition test; format: biochemical; settings: read-out: MMPs IC50 MMP-8
# Chain of human MMP-8 (P22894 101-467): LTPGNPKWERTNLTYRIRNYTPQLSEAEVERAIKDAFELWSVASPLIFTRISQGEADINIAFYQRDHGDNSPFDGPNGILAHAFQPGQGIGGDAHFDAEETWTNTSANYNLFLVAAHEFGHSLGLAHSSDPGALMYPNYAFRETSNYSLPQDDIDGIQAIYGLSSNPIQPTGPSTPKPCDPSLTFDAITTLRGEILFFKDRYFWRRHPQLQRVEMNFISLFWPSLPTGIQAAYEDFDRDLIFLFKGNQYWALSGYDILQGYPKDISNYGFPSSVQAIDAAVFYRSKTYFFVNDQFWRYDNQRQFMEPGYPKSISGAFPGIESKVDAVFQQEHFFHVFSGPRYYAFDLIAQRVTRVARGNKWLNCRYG
# Method: as §1
# (§3) 90 μL (29 ng) of human MMP-8 (Calbiochem #444229) was mixed with 10 μL of 10 mM APMA, and activated by reacting at 37° C. for 1 hour. 10 μL of the resultant enzyme solution was diluted to 90 μL with an assay buffer A. The mixture was added to 90 μL of a 20 μM fluorescent substrate (MOCAc-Pro-Leu-Gly-Leu-A2pr(Dnp)-Ala-Arg-NH2, Peptide Institute Inc., #3163-v) (SEQ ID NO: 3) prepared with an assay buffer B, and reacted at 37° C. for 5 hours. Enzyme activity was then determined by measuring with a fluorescence intensity meter (Labsystems, Fluoroskan Ascent) at an excitation wavelength of 320 nm and a measurement wavelength of 405 nm.
# as §2
# [3] = molecular target: human MMP-17 (Homo sapiens, UniProt Q9ULZ9); experiment: MMP-17 inhibition test; format: biochemical; settings: read-out: MMPs IC50 MMP-17
# Chain of human MMP-17 (Q9ULZ9 126-565 limits assumed): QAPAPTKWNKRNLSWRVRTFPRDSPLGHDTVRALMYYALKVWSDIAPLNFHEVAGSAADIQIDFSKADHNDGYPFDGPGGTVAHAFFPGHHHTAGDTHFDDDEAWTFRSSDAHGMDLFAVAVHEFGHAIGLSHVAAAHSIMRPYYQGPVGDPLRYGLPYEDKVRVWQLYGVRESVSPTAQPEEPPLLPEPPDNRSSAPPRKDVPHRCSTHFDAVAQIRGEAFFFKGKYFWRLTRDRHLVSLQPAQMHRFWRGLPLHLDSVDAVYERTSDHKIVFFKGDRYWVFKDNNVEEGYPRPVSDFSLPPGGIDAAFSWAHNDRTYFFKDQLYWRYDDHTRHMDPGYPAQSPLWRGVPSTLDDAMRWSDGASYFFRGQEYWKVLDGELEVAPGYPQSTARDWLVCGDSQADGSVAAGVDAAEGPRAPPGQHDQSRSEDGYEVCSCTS
# Method: as §1
# as §3, with “(5.8” for “(29”, “MMP-17” for “MMP-8”, “#475940) prepared” for “#444229) was mixed with 10 μL of 10 mM APMA, and activated by reacting at 37° C. for 1 hour. 10 μL of the resultant enzyme solution was diluted to 90 μL”, “A” for “A. The mixture”, “room temperature” for “37° C.”
# as §2
# [4] = molecular target: human MMP-1 (Homo sapiens (Human), UniProt P03956); experiment: MMP-1 inhibition test; format: biochemical; settings: read-out: MMPs IC50 MMP-1
# Chain of human MMP-1 (P03956 100-469): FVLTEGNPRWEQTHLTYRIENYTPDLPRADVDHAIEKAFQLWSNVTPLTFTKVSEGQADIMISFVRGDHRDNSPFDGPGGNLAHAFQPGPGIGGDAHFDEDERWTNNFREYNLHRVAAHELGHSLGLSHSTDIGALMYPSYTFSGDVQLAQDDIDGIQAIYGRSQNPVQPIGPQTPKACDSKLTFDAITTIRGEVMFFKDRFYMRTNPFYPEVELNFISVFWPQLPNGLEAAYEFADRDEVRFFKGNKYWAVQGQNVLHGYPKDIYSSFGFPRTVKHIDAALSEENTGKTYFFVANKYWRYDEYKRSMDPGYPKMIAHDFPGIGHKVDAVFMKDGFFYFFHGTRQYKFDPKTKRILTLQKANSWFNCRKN
# Method: as §1
# 180 μL (100 ng) of human MMP-1 (Calbiochem #444208) was mixed with 20 μL of 10 mM p-amino phenyl mercuric acetate (APMA), and activated by reacting at 37° C. for 1 hour. 20 μL of the resultant enzyme solution was diluted to 90 μL with an assay buffer A. The mixture was added to 90 μL of a 20 μM fluorescent substrate (Dnp-Pro-Cha(β-cyclohexylalanyl)-Gly-Cys(Me)-His-Ala-Lys(Nma)-NH2) (SEQ ID NO: 2) prepared with an assay buffer B, and reacted at 37° C. for 5 hours. Enzyme activity was then determined by measuring with a fluorescence intensity meter (Labsystems, Fluoroskan Ascent) at an excitation wavelength of 355 nm and a measurement wavelength of 460 nm.
# as §2
# [5] = molecular target: human MMP-3 (Homo sapiens (Human), UniProt P08254); experiment: MMP-3 inhibition test; format: biochemical; settings: read-out: MMPs IC50 MMP-3
# Chain of human MMP-3 (P08254 100-272): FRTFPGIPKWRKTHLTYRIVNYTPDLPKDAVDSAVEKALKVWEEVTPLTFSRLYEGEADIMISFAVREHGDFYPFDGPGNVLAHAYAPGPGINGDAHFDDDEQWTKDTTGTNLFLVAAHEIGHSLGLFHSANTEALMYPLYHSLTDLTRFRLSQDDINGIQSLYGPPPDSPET
# Method: as §1
# 90 μL (1.5 ng) of human MMP-3 (Calbiochem #444217) prepared with an assay buffer A was added to 90 μL of a 20 μM fluorescent substrate NFF-3 (MOCAc((7-methoxycoumarin-4-yl)acetyl)-Arg-Pro-Lys-Pro-Val-Glu-Nva-Trp-Arg-Lys(Dnp)-NH2, Peptide Institute Inc., #3168-v) (SEQ ID NO: 4) prepared with an assay buffer B, and reacted at 37° C. for 4 hours. Enzyme activity was then determined by measuring with a fluorescence intensity meter (Labsystems, Fluoroskan Ascent) at an excitation wavelength of 320 nm and a measurement wavelength of 405 nm.
# as §2
# [6] = tested on: auricular oedema induced by TPA in BALB/c mice; experiment: Inhibition test of auricular oedema induced by single application of TPA in mouse; format: in vivo; settings: 1 w/v % solution applied topically to ear 1 hour before TPA, auricle thickness 6 hours after TPA, read-out: Auricular oedema inhibition rate (%)
# Method: Inhibition Test of Auricular Oedema Induced by Single Application of TPA (12-O-tetradecanoylphorbol-13-acetate) in Mouse (In Vivo Efficacy Test Based on TNF-α-Related Cutaneous Inflammation)
# Auricular oedema was induced by applying 54 μmol/L TPA-acetone solution on both the inner and outer sides of the left ear of BALB/c mice (application volume of 54 μmol/L TPA-acetone solution is 10 μL for each side of the left ear (i.e. 1.08 nmol TPA/auricle)). For a non-induced group, acetone was similarly applied instead of the 54 μmol/L TPA-acetone solution. The test substance was dissolved and prepared in a 1 w/v % solution of acetone containing 10 vol % DMSO (topical administration vehicle), then the test solution was applied onto both the inner and outer sides of the left ear of the mice (application volume of this test solution is 10 μL for each side of the left ear) 1 hour before the TPA application. For a control group, the topical administration vehicle was similarly applied instead of the test substance solution. For an etanercept group, 0.2 mL of a 5 mg/mL etanercept solution was intravenously administered (1 mg/mouse) the day before TPA application and 1.5 hours before TPA application. For a human IgG (hIgG) group (etanercept control group), 0.2 mL of a 5 mg/mL hIgG solution was intravenously administered (1 mg/mouse). Auricle thickness was measured under ether anesthesia the day before TPA application and 6 hours after TPA application for evaluation of the auricular oedema inhibition effect of the test substance based on the increase in auricle thickness as an index.
# The auricular oedema inhibition rate (%) of the test substance was calculated based on the following formula using (A) the average value of the increase in auricular thickness of the group administered with the test substance, (B) the average value of the increase in auricular thickness of the non-induced group, and (C) the average value of the increase in auricular thickness of the control group. […]
# Chain of human MMP-9 (P14780 107-707): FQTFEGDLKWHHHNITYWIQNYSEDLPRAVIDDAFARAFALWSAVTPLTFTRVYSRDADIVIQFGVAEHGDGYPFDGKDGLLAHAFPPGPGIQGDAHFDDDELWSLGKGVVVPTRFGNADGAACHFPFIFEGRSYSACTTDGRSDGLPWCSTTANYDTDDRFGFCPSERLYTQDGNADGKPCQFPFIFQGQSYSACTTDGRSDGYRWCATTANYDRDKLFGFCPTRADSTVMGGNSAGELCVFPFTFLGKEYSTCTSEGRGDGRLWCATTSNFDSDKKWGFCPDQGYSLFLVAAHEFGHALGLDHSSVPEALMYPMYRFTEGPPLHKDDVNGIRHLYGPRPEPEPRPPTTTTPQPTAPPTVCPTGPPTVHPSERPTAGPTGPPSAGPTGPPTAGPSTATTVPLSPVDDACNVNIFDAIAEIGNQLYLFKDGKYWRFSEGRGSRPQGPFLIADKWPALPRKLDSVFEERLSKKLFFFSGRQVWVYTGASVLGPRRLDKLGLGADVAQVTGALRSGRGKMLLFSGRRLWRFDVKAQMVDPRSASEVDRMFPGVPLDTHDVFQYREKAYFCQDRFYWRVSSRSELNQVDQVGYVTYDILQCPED
Compound,IC50 [1],IC50 [2],IC50 [3],IC50 [4],IC50 [5],inhibition in vivo at 10000 µg/mL [6]
"Cc1cccn(CC2(c3ccc(F)c(F)c3)NC(=O)NC2=O)c1=O (stereo not shown) [Compound I-10, 5-(3,4-difluorophenyl)-5-[(3-methyl-2-oxopyridin-1(2H)-yl)methyl] imidazolidine-2,4-dione]",> 100 µM,19 µM,> 100 µM,> 100 µM,> 100 µM,46%
"COc1ccc(Cl)cc1C1(Cn2cccc(C)c2=O)NC(=O)NC1=O (stereo not shown) [Compound I-27, 5-(5-chloro-2-methoxyphenyl)-5-[(3-methyl-2-oxopyridin-1(2H)-yl)methyl]imidazolidine-2,4-dione]",> 100 µM,16 µM,57 µM,> 100 µM,49 µM,–
"Cc1cccn(CC2(c3ccc(Cc4ccc(F)cc4)cc3)NC(=O)NC2=O)c1=O (stereo not shown) [Compound I-41, 5-[4-(4-fluorobenzyl)phenyl]-5-[(3-methyl-2-oxopyridin-1(2H)-yl)methyl] imidazolidine-2,4-dione]",> 100 µM,> 10 µM,16 µM,93 µM,> 100 µM,51%
Cc1cccn(CC2(c3cccc(-c4cccnc4)c3)NC(=O)NC2=O)c1=O (stereo not shown) [Compound I-62],67 µM,5 µM,45 µM,> 100 µM,39 µM,47%

# The next lines start with results.
IC50 [1],IC50 [2],IC50 [3],IC50 [4],IC50 [5],Compound,inhibition in vivo at 10000 µg/mL [6]
> 100 µM,21 µM,> 100 µM,> 100 µM,> 100 µM,"Cc1cccn(CC2(c3ccccc3)NC(=O)NC2=O)c1=O (stereo not shown) [Compound I-1, 5-[(3-methyl-2-oxopyridin-1(2H)-yl)methyl]-5-phenyl-imidazolidine-2,4-dione]",–
> 100 µM,14 µM,21 µM,> 100 µM,74 µM,"Cc1cccn(CC2(c3ccc(Oc4ccccc4)cc3)NC(=O)NC2=O)c1=O (stereo not shown) [Compound I-9, 5-[(3-methyl-2-oxopyridin-1(2H)-yl)methyl]-5-(4-phenoxyphenyl)imidazolidine-2,4-dione]",66%
> 100 µM,16 µM,30 µM,> 100 µM,> 100 µM,"Cc1cccn(CC2(c3ccc(Cc4ccccc4)cc3)NC(=O)NC2=O)c1=O (stereo not shown) [Compound I-40, 5-(4-benzylphenyl)-5-[(3-methyl-2-oxopyridin-1(2H)-yl)methyl]imidazolidine-2,4-dione]",63%
> 100 µM,6.2 µM,> 100 µM,> 100 µM,> 100 µM,Cc1cccn(CC2(c3ccc(OCc4ccccc4)cc3)NC(=O)NC2=O)c1=O (stereo not shown) [Compound I-64],50%
> 100 µM,18 µM,27 µM,> 100 µM,> 100 µM,Cc1cccn(CC2(c3ccc(Oc4ccccc4F)cc3)NC(=O)NC2=O)c1=O (stereo not shown) [Compound I-86],68%
